Structures can show the parent of a compound that is named as a salt.
Experiments:
[1] = biological target: T1, EP4 (Mus musculus, UniProt P32240); assay: Binding assay using cell expressing the prostanoid receptor subtypes ([3H]-PGE2 competition, CHO membrane fraction); conditions: membrane fraction of CHO cell expressing mouse EP4, Ki=IC50/(1+([C]/Kd))
T1 construct: expressed in transfected cells; host or cells: CHO cells (membrane fraction)
Description: (i) Binding Assay Using Cell Expressing The Prostanoid Receptor Subtypes
The preparation of membrane fraction was carried out according to the method of Sugimoto et al [J. Biol. Chem. 267, 6463–6466 (1992)], using CHO cell expressing prostanoid receptor subtype (mouse EP1, EP2, EP3, EP4 and human IP).
The standard assay mixture containing membrane fraction (0.5 mg/mL), [^3H]-PGE2 in a final volume of 200 μl was incubated for 1 hour at room temperature. The reaction was terminated by addition of 3 mL of ice-cold buffer. The mixture was rapidly filtered through a glass filter (GF/B) under reduced pressure. The radioactivity associated with the filter was measured by liquid scintillation counter.
Kd and Bmax values were determined from Scatchard plots [Ann. N.Y. Acad. Sci. 51, 660(1949)]. Non-specific binding was calculated as the amount bound in the presence of an excess (2.5 μM) of unlabeled PGE2. In the experiment for competition of specific [^3H]-PGE2 binding by the compounds of the present invention, [^3H]-PGE2 was added at a concentration of […] and the compound of the present invention was added at various concentrations. The following buffer was used in all reactions. • Buffer: 10 mM potassium phosphate (pH 6.0), 1 mM EDTA, 10 mM MgCl2, 0.1 M NaCl. • The dissociation constant (Ki) (μM) of each compound was calculated by the following equation. Ki=IC50/(1+([C]/Kd))

[2] = biological target: T1, EP4; assay: EP4 antagonizing activity assay using the cell expressing the prostanoid receptor subtypes (cAMP production in CHO cells); format: cell-based; conditions: inhibition of cAMP production with 100 nM PGE2 as agonist; CHO cell expressing receptor subtype
Description: (ii) EP4 Antagonizing Activity Assay Using the Cell Expressing the Prostanoid Receptor Subtypes
The preparation of CHO cell expressing prostanoid receptor subtype was carried out according to the method of Nishigaki et al [FEBS lett., 364, 339–341(1995)]. The cells were cultured in 24-well microplates (10^5 cells/well) for two days before experiments. After washing each well with 500 μL of MEM (minimum essential medium), thereto was added 450 μL of assay medium (MEM containing 1 mmol/L IBMX, 1% BSA), and the mixture was incubated for 10 minutes at 37° C. Then PGE2 alone or a combination with a test compound (50 μL) were added, and the mixture was incubated for 10 minutes at 37° C. And reaction was terminated by addition of ice-cold TCA (10% W/V, 500 μL). This reaction mixture was freezed once (−80° C.) and thawed, and cells were harvested using a scraper. After centrifugation (13,000 r.p.m., for 3 minutes), cAMP content was measured using cAMP assay kit. That is, the supernatant (125 μL) was diluted with 500 μL of [^125I]-cAMP assay kit buffer (Amersham), and mixed with 0.5 mol/L tri-n-octylamine/chloroform solution (1 mL) was mixed. After removal of TCA from chloroform layer, cAMP content in the aqueous layer was quantified according to the method of kit manuals. […]

T1 sequence (P32240 whole entry): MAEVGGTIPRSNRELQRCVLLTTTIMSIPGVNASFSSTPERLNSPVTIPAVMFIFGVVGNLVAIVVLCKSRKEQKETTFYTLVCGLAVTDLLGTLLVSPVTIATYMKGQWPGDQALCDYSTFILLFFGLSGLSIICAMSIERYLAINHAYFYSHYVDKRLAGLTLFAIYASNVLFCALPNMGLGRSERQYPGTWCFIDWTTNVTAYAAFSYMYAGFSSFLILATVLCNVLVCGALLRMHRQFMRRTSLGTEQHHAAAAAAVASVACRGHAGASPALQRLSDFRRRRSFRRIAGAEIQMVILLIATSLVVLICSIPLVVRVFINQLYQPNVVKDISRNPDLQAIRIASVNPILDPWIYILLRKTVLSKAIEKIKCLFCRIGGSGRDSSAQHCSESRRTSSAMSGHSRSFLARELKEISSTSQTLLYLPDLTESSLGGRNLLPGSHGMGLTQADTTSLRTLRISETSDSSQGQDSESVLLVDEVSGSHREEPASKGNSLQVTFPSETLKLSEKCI

Row | Ki [1] [nM] | IC50 [2] [nM] | Structure (SMILES)
1 | 2.7 | 10 | CC(C(=O)Nc1ccccc1Cc1ccccc1C(=O)O)c1cccc2ccccc12 (stereo not shown) [Example 2(1), 2-[2-[2-(1-naphthyl)propanoylamino]phenylmethyl]benzoic acid]
2 | 6.5 |  | CC(C(=O)Nc1ccncc1Cc1ccccc1C(=O)O)c1cccc2ccccc12 (stereo not shown) [Example 2(15), 2-[4-[2-(1-naphthyl)propanoylamino]pyridin-3-ylmethyl]benzoic acid monohydrochloride]
3 | 10.5 |  | CC(C(=O)Nc1ccccc1Cc1ccccc1C(=O)O)c1ccc(OCc2ccccc2)cc1 (stereo not shown) [Example 4(1), 2-[2-[2-(4-benzyloxyphenyl)propanoylamino]phenylmethyl]benzoic acid]

Reference: patent publication US7196198B2, “Benzoic acid derivatives, processes for the preparation thereof and pharmaceutical agents comprising the same as active ingredient” (Ono Pharmaceutical Co., Ltd., priority 2000, dated 2007)
